In US5153176A, “Tripeptide derivatives and protease inhibitor composition comprising the same” (Nitto Boseki Co., Ltd., priority 1990, dated 1992):
Counter-ions that a name gives are not always drawn. Like-named read-outs stand apart in the source and are kept apart here. Where a SMILES comes first, the peptide text is derived from it. [ ]: non-standard residue; d: D form. The star is where a group is joined. Tos = Cc1ccc(S(=O)(=O)*)cc1; PhAc = O=C(Cc1ccccc1)*

Columns and labels:
Assay type in all cases: biochemical
[1] = target: T1, thrombin (Homo sapiens, UniProt P00734); assay: Assay for inhibitory activity against thrombin (synthetic substrate PS-915); conditions: for IC50: PS-915, pH 8.5, 37° C.
T1 construct: purchased Sankyo (Sankyo Color Test ATIII Assay Kit)
Text: (§1) As synthetic substrate used to examine the activity of the inhibitor for inhibiting substrate decomposition with the enzyme, there were used PS-994 (H-D-Lys(Tos)-Phe-Lys-CHA.2HCl, manufactured by Nitto Boseki Co., Ltd.) for plasmin, PS-915 (H-D-Phe-Pro-Arg-CHA.2HCl, manufactured by Nitto Boseki Co., Ltd.) for thrombin and trypsin, PS-2000 (Z-D-Lys(HCO)-Gly-Arg-CHA.HCl, manufactured by Nitto Boseki Co., Ltd.) for factor Xa, S-2302 (H-D-Pro-Phe-Arg-pNA, manufactured by Kabi Co.) for kallikrein, and MUK-34: [drawing 5] for urokinase.
(§2) As plasmin, thrombin, trypsin, factor Xa, kallikrein and urokinase, there were used 0.3 CU/ml of Sankyo Color Test α2 -PI Assay Kit Standard, 1.2 NIH U/ml of Sankyo Color Test ATIII Assay Kit, 2 μg/ml of Code 3703 manufactured by Worsingstone Co., 0.25 U/ml of human factor Xa manufactured by Boehringer Mannheim, 0.12 U/ml of human plasma kallikrein manufactured by Kabi Co., and 1000 U/ml of Mochida Pharmaceutical Urokinase 60,000 (60,000 U/vial), respectively. In the case of CHA type substrate, a color-forming termination solution for Sankyo Color Test Kit was used. Enzyme reactions were carried out at 37° C.
Assay For Inhibitory Activity Against Thrombin
Each aqueous solution (0.1 ml) of the inhibitor having various concentrations was added to 0.4 ml of buffer (150 mM sodium chloride aqueous solution containing 150 mM Tris, pH 8.5) and the mixture was heated for 5 minutes. Then, 0.2 ml of the thrombin solution was added thereto and the mixture was reacted for 5 minutes. After 0.1 ml of PS-915 solution (10 mM) was added thereto, the mixture was again reacted for 5 minutes. Then, 2 ml of the color-forming termination solution was added to the reaction mixture. Then the mixture was allowed to stand for 10 minutes and absorbance was measured at 700 nm. IC50 was determined by the method described above.

[2] = target: T2, urokinase (Homo sapiens, UniProt P00749); assay: Assay for inhibitory activity against urokinase (synthetic substrate MUK-34); conditions: for IC50: MUK-34, pH 8.20, 37° C.
T2 construct: purchased Mochida Pharmaceutical Urokinase 60,000 (60,000 U/vial)
Text: as §1, §2
Assay For Inhibitory Activity Against Urokinase
An aqueous solution (0.1 ml) of […] the inhibitor was added to 0.3 ml of buffer (150 mM sodium chloride aqueous solution containing 50 mM Tris, pH 8.20) and the mixture was heated for 5 minutes. Thereafter 0.1 ml of urokinase solution (containing 50 mM Tris, 150 mM sodium chloride aqueous solution and 0.1% BSA, pH 8.20) was added thereto, and the mixture was reacted for 5 minutes. Furthermore, 10 mM MUK-34 aqueous solution (0.1 ml) was added thereto, and the mixture was reacted for 5 minutes. Then 10% acetic acid aqueous solution (2.0 ml) was added to the mixture to terminate the reaction. Absorbance was measured at 405 nm and IC50 was determined by the method described above.

[3] = target: T3, plasmin (Homo sapiens, UniProt P00747); assay: Assay for inhibitory activity against plasmin (synthetic substrate PS-994); conditions: for IC50: PS-994, pH 7.8, 37° C.
T3 construct: purchased Sankyo (Sankyo Color Test α2 -PI Assay Kit Standard)
Text: as §1, §2
Assay For Inhibitory Activity Against Plasmin
Each aqueous solution (0.1 ml) of the inhibitor having various concentrations was added to 0.4 ml of buffer (150 mM sodium chloride aqueous solution containing 100 mM Tris, pH 7.8) and the mixture was heated for 5 minutes. After 0.2 ml of the plasmin solution was added thereto, the mixture was reacted for 5 minutes. After 0.1 ml of PS-994 solution (10 mM) was added thereto, and the mixture was again reacted for 5 minutes. Then, 2.0 ml of the color-forming termination solution was added to the reaction mixture. Then the mixture was allowed to stand for 10 minutes and absorbance was measured at 700 nm. A concentration of the inhibitor in the reaction system showing 1/2 absorbance that of the case where no inhibitor was present was determined to be IC50.

[4] = target: T4, human factor Xa (Homo sapiens, UniProt P00742); assay: Assay for inhibitory activity against factor Xa (synthetic substrate PS-2000); conditions: for IC50: PS-2000, pH 8.5, 37° C.
T4 construct: purchased Boehringer Mannheim
Text: as §1, §2
Assay For Inhibitory Activity Against Factor Xa
To 0.3 ml of buffer (150 mM sodium chloride aqueous solution containing 50 mM Tris, pH 8.5) was added 0.1 ml each of an aqueous solution of the inhibitor having various concentrations. The mixture was heated for 5 minutes. Then, 0.1 ml of factor Xa solution (150 mM solution chloride aqueous solution containing 50 mM Tris and 20 mM calcium chloride, pH 8.5) was added thereto, and the mixture was reacted for 5 minutes. Furthermore,5% polyvinylpyrrolidone solution (0.1 ml) containing 10 mM PS-2000 was added thereto, and the mixture was again reacted for 5 minutes. Then, 2 ml of the color-forming termination solution was added to the reaction mixture. Then the mixture was allowed to stand for 10 minutes and absorbance was measured at 700 nm. IC50 was determined by the method described above.

[5] = target: T5, human plasma kallikrein (Homo sapiens, UniProt P03952); assay: Assay for inhibitory activity against kallikrein (synthetic substrate S-2302); conditions: for IC50: S-2302, pH 8.0, 37° C.
T5 construct: purchased Kabi Co
Text: as §1, §2
Assay For Inhibitory Activity Against Kallikrein
To 0.4 ml of buffer (150 mN sodium chloride aqueous solution containing 50 mM Tris, pH 8.0) was added 0.1 ml each of aqueous solutions of the inhibitor having various concentrations and the mixture was heated for 5 minutes. Then, 0.1 ml of kallikrein solution (containing 0.5% bovine serum albumin, No. A-8022 of Sigma Co.) was added thereto, and the mixture was reacted for 5 minutes. Furthermore, 10 mM S-2302 aqueous solution (0.1 ml) was added thereto, and the mixture was again reacted for 5 minutes. Then, 5 ml of 20% acetic acid aqueous solution was added to terminate the reaction. Absorbance was measured at 405 nm and IC50 was determined by the method described above.

[6] = target: T6, trypsin (Bos taurus, UniProt P00760); assay: Assay for inhibitory activity against trypsin (synthetic substrate PS-915); conditions: for IC50: PS-915, pH 8.0, 37° C.
T6 construct: purchased Worsingstone Co. (so in the source)
T6 sequence (P00760 24-246): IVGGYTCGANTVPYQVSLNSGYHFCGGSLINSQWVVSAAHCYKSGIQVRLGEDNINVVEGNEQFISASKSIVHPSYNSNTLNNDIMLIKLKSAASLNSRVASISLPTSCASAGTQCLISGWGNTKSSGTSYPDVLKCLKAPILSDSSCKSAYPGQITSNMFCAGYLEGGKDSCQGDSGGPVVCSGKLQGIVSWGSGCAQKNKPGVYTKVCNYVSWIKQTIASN
Text: as §1, §2
Assay For Inhibitory Activity Against Trypsin
After 0.1 ml of an aqueous solution of the inhibitor was added to 0.5 ml of buffer (150 mM sodium chloride aqueous solution containing 150 mM Tris, pH 8.0) and the mixture was heated for 5 minutes, 0.1 ml of trypsin solution was added thereto. The mixture was reacted for 5 minutes. Furthermore, 0.1 ml of PS-915 solution (10 mM) was added thereto. The mixture was again reacted for 5 minutes. Then, 2 ml of the color-forming termination solution [containing 2.5 mg/ml of soybean trypsin inhibitor (manufactured by Sigma Co., No. T-9003)] was added to the reaction mixture. Then the mixture was allowed to stand for 10 minutes and absorbance was measured at 700 nm. IC50 was determined by the method described above.

[7] = Table 2, known compounds, read-out: IC50 Thrombin
[8] = Table 2, known compounds, read-out: IC50 Urokinase
[9] = Table 2, known compounds, read-out: IC50 Plasmin
[10] = Table 2, known compounds, read-out: IC50 Factor Xa
[11] = Table 2, known compounds, read-out: IC50 Kallikrein
[12] = Table 2, known compounds, read-out: IC50 Trypsin
[13] = Table 3, compounds of the invention, read-out: Thrombin
[14] = Table 3, compounds of the invention, read-out: Urokinase
[15] = Table 3, compounds of the invention, read-out: Plasmin
[16] = Table 3, compounds of the invention, read-out: Factor
[17] = Table 3, compounds of the invention, read-out: Kallikrein
[18] = Table 3, compounds of the invention, read-out: Trypsin

T4 sequence (P00742 235-488 limits assumed): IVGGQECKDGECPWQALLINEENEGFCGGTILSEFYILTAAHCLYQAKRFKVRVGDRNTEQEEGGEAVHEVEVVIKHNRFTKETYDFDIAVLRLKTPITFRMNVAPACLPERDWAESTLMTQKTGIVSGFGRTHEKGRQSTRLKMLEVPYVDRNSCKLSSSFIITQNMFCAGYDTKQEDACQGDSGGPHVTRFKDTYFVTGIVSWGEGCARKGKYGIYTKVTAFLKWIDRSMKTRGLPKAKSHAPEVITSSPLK
T4 sequence (P00742 41-179 partner limits assumed): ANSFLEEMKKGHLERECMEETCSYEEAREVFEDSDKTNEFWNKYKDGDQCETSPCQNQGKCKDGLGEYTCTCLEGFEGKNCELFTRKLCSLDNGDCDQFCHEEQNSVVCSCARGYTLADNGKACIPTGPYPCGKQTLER
T3 sequence (P00747 581-810 limits assumed, species assumed): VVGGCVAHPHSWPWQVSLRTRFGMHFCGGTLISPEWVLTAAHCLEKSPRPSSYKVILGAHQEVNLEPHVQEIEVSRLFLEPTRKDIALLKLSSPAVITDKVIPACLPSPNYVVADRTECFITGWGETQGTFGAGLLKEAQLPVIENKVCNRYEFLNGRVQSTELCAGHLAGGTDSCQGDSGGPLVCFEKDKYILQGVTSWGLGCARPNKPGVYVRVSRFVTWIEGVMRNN
T3 sequence (P00747 97-580 partner limits assumed, species assumed): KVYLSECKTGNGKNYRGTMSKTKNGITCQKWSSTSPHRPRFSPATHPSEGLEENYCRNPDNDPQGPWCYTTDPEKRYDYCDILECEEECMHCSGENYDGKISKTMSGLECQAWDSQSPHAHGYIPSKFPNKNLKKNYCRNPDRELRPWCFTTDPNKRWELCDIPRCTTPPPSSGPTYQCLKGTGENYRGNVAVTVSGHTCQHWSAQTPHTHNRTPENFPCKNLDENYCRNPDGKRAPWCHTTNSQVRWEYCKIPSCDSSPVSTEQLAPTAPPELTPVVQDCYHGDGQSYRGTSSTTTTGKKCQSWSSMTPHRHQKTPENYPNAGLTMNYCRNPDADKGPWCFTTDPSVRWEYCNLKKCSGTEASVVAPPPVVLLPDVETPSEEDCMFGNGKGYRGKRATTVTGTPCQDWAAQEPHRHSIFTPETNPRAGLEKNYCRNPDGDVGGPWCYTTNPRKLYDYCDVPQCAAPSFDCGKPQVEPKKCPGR
T5 sequence (P03952 20-638): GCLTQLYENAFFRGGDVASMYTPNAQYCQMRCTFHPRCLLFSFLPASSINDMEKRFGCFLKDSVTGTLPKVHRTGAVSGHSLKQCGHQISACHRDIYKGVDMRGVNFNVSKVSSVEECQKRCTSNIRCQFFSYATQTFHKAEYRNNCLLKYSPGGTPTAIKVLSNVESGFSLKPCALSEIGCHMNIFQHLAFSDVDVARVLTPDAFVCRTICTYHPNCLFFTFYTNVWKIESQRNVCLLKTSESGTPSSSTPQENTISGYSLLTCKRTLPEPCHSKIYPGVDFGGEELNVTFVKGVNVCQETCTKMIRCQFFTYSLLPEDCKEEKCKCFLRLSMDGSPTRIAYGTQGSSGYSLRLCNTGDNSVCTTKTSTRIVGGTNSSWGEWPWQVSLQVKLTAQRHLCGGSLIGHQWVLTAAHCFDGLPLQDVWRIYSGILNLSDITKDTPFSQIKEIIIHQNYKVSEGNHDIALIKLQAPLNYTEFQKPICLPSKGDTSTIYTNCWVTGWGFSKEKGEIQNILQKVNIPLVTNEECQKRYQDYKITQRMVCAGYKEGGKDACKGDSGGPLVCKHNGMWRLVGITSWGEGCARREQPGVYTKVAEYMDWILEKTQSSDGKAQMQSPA

Row | Compound | IC50 [1, 7] [µM] | IC50 [2, 8] [µM] | IC50 [3, 9] [µM] | IC50 [4, 10] [µM] | IC50 [5, 11] [µM] | IC50 [6, 12] [µM] | IC50 [1, 13] [µM] | IC50 [2, 14] [µM] | IC50 [3, 15] [µM] | IC50 [4, 16] [µM] | IC50 [5, 17] [µM] | IC50 [6, 18] [µM] | inhibitory activity against urokinase (in words) [2] | inhibitory activity against plasmin (in words) [3] | inhibitory activity against factor Xa (in words) [4] | inhibitory activity against kallikrein (in words) [5] | inhibitory activity against trypsin (in words) [6] | inhibitory activity against thrombin (in words) [1]
1 | CCOC(=O)c1ccc(OC(=O)CCCCCN=C(N)N)cc1 [Example A3, reference compound] | 32 | 1.1 | 40 | 13 | 4.5 | 1.9 | – | – | – | – | – | – | – | – | – | – | – | –
2 | N-α-isobutoxycarbonyl-N-ε-(p-tosyl)-D-lysyl-L-prolyl-L-argininal 1/2 sulfate [Example 15] | – | – | – | – | – | – | 0.44 | 1.4 | 0.059 | 0.35 | 0.037 | 0.022 | – | – | – | – | – | –
3 | N-ε-(p-toluoyl)-D-lysyl-L-prolyl-L-argininal sulfate [Example 7] | – | – | – | – | – | – | 0.35 | 7.9 | 1 | 4.8 | 0.2 | 0.011 | – | – | – | – | – | –
4 | Cc1ccc(S(=O)(=O)NCCCC[C@@H](N)C(=O)N2CCC[C@H]2C(=O)N[C@H](C=O)CCCNC(=N)N)cc1 [Example 1, N-ε-(p-tosyl)-D-lysyl-L-prolyl-L-argininal sulfate] (H-[dK](Tos)-Pro-Arg-aldehyde) | – | – | – | – | – | – | 0.3 | 35 | 1.5 | 6.5 | 0.029 | 0.048 | – | – | – | – | – | –
5 | CC(=O)N[C@@H](CC(C)C)C(=O)N[C@@H](CC(C)C)C(=O)N[C@H](C=O)CCCNC(=N)N [Example A1, acetyl-L-leucyl-L-leucyl-argininal, reference compound] | – | – | – | – | – | – | – | – | – | – | – | – | do not strongly inhibit | do not strongly inhibit | do not strongly inhibit | do not strongly inhibit | inhibit | –
6 | N-ε-(2-naphthalenesulfonyl)-D-lysyl-L-prolyl-L-argininal sulfate [Example 3] | – | – | – | – | – | – | 0.2 | – | 0.55 | 3.5 | 0.04 | 0.032 | – | – | – | – | – | –
7 | N=C(N)NCCC[C@@H](C=O)NC(=O)[C@@H]1CCCN1C(=O)[C@H](N)Cc1ccccc1 [Example A2, D-phenylalanyl-L-prolyl-L-argininal, reference compound] | 0.025 | 42 | 19 | 25 | 31 | 0.069 | – | – | – | – | – | – | do not strongly inhibit | do not strongly inhibit | do not strongly inhibit | do not strongly inhibit | inhibit | inhibit
8 | N-ε-Ethanesulfonyl-D-lysyl-L-prolyl-L-argininal sulfate [Example 5] | – | – | – | – | – | – | 1.3 | 81 | 6.3 | 18 | 5.4 | 0.065 | – | – | – | – | – | –
9 | N-α-N-ε-di(p-tosyl)-D-lysyl-L-prolyl-L-argininal1/2 sulfate [Example 17] | – | – | – | – | – | – | 0.63 | 3.5 | 0.06 | 0.46 | 0.038 | 0.035 | – | – | – | – | – | –
10 | N=C(N)NCCC[C@@H](C=O)NC(=O)[C@@H]1CCCN1C(=O)[C@H](N)CCCCNC(=O)Cc1ccccc1 [Example 9, N-ε-phenylacetyl-D-lysyl-L-prolyl-L-argininal sulfate] (H-[dK](PhAc)-Pro-Arg-aldehyde) | – | – | – | – | – | – | 0.93 | 83 | 2.6 | 15 | 0.2 | 0.068 | – | – | – | – | – | –
11 | N-α-(2-naphthalenesulfonyl)-N-ε-(p-tosyl)-D-lysyl-L-prolyl-L-argininal 1/2 sulfate [Example 20] | – | – | – | – | – | – | 1.2 | 6.6 | 0.25 | 1.1 | 0.17 | 0.043 | – | – | – | – | – | –
12 | N-ε-acetyl-D-lysyl-L-prolyl-L-argininal sulfate [Example 10] | – | – | – | – | – | – | 0.33 | 40 | 4.3 | 4.1 | 4 | 0.06 | – | – | – | – | – | –
